Source: patent publication US20240350402A1, “TOPICAL DRUG TREATMENT TO PREVENT OR REDUCE CORNEAL SCARRING” (The Cleveland Clinic Foundation, priority 2021, published 2024)

Key:
[1] = test system: corneal neovascularization (CNV); assay: Alkali burn model: central corneal neovascularization (corneal angiography); assay type: in vivo, rabbit; settings: four corneas in each group, topical six times per day, one month
Procedure: (§1) Alkali injuries were produced in one eye of rabbits with previously published methods^10 using 1N sodium hydroxide (Sigma, St. Louis, MO) in balanced salt solution (BSS, 0.64% sodium chloride, 0.075% potassium chloride, 0.048% calcium chloride dihydrate, […] magnesium chloride hexahydrate, 0.39% sodium acetate trihydrate, 0.17% sodium citrate dihydrate, pH 7.5, Alcon, H. Worth, TX) and a 5 mm diameter circular Whatman No. 1 filter paper (Cat #1001-6508, Fisher Scientific) wetted with 100 μl of 1N NaOH solution. Following the alkali burn injury, the cornea was irrigated profusely with BSS. Each injured cornea also received one drop of ciprofloxacin (Alcon, Ft. Worth, TX, USA) ten minutes after surgery and four times a day for one week and at least 15 minutes apart from the study medications.
Worth TX), at least 5 minutes apart, or 4) 50 μl of BSS.
All corneas had fluorescent angiography at the peak of dye passage in the cornea immediately after injection of 1.5 ml of 10% sodium fluorescein (McKesson, Irvine, TX) in the central ear vein with the slit lamp system and digital camera system using a “barrier filter” that only transmitted 520-530 nm, the peak of fluorescein emission, with broad illumination of the cornea, as previously described.^11

[2] = test system: rabbit corneas after alkali burn injury; assay: Alkali burn model: slit lamp opacity area and intensity (ImageJ); assay type: in vivo; settings: alkali burn 1N NaOH; topical six times per day, one month; 0.8 mg/ml losartan, 1% prednisolone acetate
Procedure: All animal treatments and care were approved by the Institutional Animal Care and Use Committee (IACUC) at the Cleveland Clinic Foundation (Cleveland, OH, USA) and the Animal Care and Use Review Office of the Department of the Army (Fort Detrick, MD). All rabbits were treated in accordance with the tenets of the ARVO Statement for the Use of Animals in Ophthalmic and Vision Research. Sixteen 10- to 15-week-old female New Zealand White rabbits weighing 2.5 to 3.0 kg each were included in this example. […]
At one month after sodium hydroxide exposure and treatments, with the rabbits under ketamine-xylazine general anesthesia, the eyes were dilated with two drops of 1% tropicamide (Akom Co., Lake Forest, IL) for thirty minutes. […] For each study eye, the total area of opacity was determined by outlining the opacity with the freehand selection tool using ImageJ 1.53a analysis software calibrated to mm^2. The “raw internal density” in pixels for the opacified area in each cornea was also determined using ImageJ. […]

[3] = test system: α-SMA-positive myofibroblasts; assay: Alkali burn model: IHC α-SMA-positive stromal area and intensity (ImageJ); assay type: in vivo, rabbit; settings: topical six times per day, one month
Procedure: as §1
Worth TX), at least 5 minutes apart, or 4) 50 μl of BSS. […]
The area of the α-SMA-positive stroma in mm^2 and the total α-SMA opacity in pixels were quantitated using standardized images obtained with a 10× objective on a Leica DM6B upright microscope equipped with an automated stage and Leica 7000 T camera using the LAS X software (Leica Microsystems, GmbH, Wetzlar, Germany). The means of three central corneal sections were analyzed from each cornea to provide the area of α-SMA-positive stroma and the total α-SMA opacity. The area of α-SMA-positive stroma in mm^2 for each cornea was determined from full diameter and thickness central corneal section images (all converted to 300 DPI, 885 width×500 height, files with identical +50% brightness increase in Photoshop for all images) with the ImageJ 1.53a analysis software using the freehand selection tool to delineate the area(s) of α-SMA-positive staining. […] In these same sections for each cornea, the total α-SMA-positive intensity in pixels was also determined with ImageJ, similarly by using the summation if separate α-SMA-positive areas were present. […]

[4] = test system: collagen type IV; assay: Alkali burn model: IHC collagen type IV intensity in anterior and posterior stroma (ImageJ); assay type: in vivo, rabbit; settings: one month
Procedure: Worth, TX) and a 5 mm diameter circular Whatman No. 1 filter paper (Cat #1001-6508, Fisher Scientific) wetted with 100 μl of 1N NaOH solution. Following the alkali burn injury, the cornea was irrigated profusely with BSS. Each injured cornea also received one drop of ciprofloxacin (Alcon, Ft. Worth, TX, USA) ten minutes after surgery and four times a day for one week and at least 15 minutes apart from the study medications. […] Worth TX), at least 5 minutes apart, or 4) 50 μl of BSS. Multiplex immunohistochemistry (IHC) was performed using previously described methods^8 and primary antibodies (Table 7) confirmed by western blotting and IHC to recognize rabbit antigens or isotypic control antibodies (Thermo Fisher Scientific, Waltham, MA), and secondary fluorescent tagged antibodies (Table 7). The collagen type IV antibody (Cat. #AB769, Millipore, Temecula CA) was raised against purified human and bovine collagen type IV that had been affinity purified with human and bovine collagen type IV crosslinked to agarose and cross-absorbed by the manufacturer with human and bovine collagens type I, II, III, V and VI to eliminate cross-reactivity. This collagen type IV antibody was shown previously to bind rabbit collagen IV in IHC,^8,9 and recognizes the alpha-1/alpha-2 chains but not the alpha-3 to alpha-6 chains. The keratocan antibody is raised against peptide […]-OH (SEQ ID NO:1). This marker was used to identify keratocytes in situ. […] All corneas in each group had IHC for collagen type IV. Images from each cornea were converted to uniform 300 DPI, 875×568 pixel, files. […] The staining intensity within each box was determined with the analyze histogram function and the mean of three boxes was the intensity value in the anterior or posterior stroma for that cornea.

SMILES: CC(=O)OCC(=O)[C@@]1(O)CC[C@H]2[C@@H]3CCC4=CC(=O)C=C[C@]4(C)[C@H]3[C@@H](O)C[C@@]21C [Prednisolone acetate, prednisolone acetate]
- corneas in which central corneal neovascularization developed [1]: one
- total opacity intensity in pixels (ImageJ) vs BSS vehicle group [2]: did not reach statistical significance
- localization of α-SMA-positive myofibroblasts in the stroma [3]: more variable
- mean intensity units of collagen type IV in the anterior stroma compared to vehicle treatment [4]: trend towards a decrease
